According to ChEMBL document CHEMBL1139018, “Acetylenic TACE inhibitors. Part 3: Thiomorpholine sulfonamide hydroxamates” (Bioorg Med Chem Lett, 2006):

Experiments:
[1] = molecular target: T1, Disintegrin and metalloproteinase domain-containing protein 17 (Homo sapiens, UniProt P78536); assay: Inhibition of TACE
[2] = molecular target: T2, Interstitial collagenase (Homo sapiens, UniProt P03956); assay: Inhibition of MMP1
T2 sequence (P03956 whole entry): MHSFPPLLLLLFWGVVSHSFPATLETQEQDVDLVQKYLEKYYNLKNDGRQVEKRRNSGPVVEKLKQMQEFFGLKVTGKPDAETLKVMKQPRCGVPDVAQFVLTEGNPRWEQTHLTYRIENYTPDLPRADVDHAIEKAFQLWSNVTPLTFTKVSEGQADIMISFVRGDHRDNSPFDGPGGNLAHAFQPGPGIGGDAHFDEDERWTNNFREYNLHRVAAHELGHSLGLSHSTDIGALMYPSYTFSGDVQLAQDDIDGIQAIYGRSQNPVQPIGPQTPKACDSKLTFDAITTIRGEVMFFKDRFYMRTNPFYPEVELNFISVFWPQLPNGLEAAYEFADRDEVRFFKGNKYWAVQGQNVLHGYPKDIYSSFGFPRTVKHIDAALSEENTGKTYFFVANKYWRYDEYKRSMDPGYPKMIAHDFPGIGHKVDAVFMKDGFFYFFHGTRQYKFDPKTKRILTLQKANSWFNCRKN

[3] = molecular target: Collagenase 3 (Homo sapiens, UniProt P45452); assay: Inhibition of MMP13
[4] = molecular target: T1, Disintegrin and metalloproteinase domain-containing protein 17; assay: Inhibition of LPS-stimulated TNF production in THP cells at 3 uM; type: functional, cell-based
[5] = molecular target: T1, Disintegrin and metalloproteinase domain-containing protein 17; assay: Inhibition of LPS-stimulated TNF production in THP cells at 1 uM; type: functional, cell-based
[6] = test system: Mus musculus; assay: Inhibition of LPS-stimulated TNFalpha production in mouse at 50 mg/kg, po; type: functional
[7] = Permeability across Caco-2 cell membrane; type: ADME, cell-based; conditions: human
[8] = organism: Mus musculus; assay: Inhibition of LPS-stimulated TNFalpha production in mouse; type: functional
[9] = Bioavailability in mouse at 10 mg/kg; type: ADME, organism-based; conditions: in vivo
[10] = Bioavailability in rat at 10 mg/kg; type: ADME, organism-based; conditions: in vivo
[11] = Bioavailability in dog at 10 mg/kg; type: ADME, organism-based, Canis lupus familiaris; conditions: in vivo

T1 sequence (P78536 whole entry, the tested form may be a part): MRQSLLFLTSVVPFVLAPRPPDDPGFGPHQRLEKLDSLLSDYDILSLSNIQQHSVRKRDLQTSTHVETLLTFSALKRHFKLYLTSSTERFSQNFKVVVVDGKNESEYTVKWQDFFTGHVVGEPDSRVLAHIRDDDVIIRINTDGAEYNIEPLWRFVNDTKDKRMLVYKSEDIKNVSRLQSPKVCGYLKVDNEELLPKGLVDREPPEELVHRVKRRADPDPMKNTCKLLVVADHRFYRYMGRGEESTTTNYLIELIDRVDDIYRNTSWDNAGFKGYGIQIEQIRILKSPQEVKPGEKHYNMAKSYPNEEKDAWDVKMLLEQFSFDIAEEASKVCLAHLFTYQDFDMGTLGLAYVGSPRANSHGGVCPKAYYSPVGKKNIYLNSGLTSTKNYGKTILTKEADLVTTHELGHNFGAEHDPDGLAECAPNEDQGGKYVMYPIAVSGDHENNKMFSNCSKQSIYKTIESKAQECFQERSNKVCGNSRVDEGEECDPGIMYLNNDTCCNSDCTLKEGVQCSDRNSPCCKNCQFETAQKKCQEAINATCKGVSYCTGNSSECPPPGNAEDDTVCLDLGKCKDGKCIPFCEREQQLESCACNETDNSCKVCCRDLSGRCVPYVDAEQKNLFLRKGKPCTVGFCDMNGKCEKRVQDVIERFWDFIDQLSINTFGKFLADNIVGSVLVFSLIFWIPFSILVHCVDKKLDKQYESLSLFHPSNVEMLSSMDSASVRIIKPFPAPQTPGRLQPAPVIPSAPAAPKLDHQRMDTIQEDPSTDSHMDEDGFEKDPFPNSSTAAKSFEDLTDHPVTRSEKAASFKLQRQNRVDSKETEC

| SMILES | IC50 [1] [µM] | IC50 [2] [µM] | IC50 [3] [µM] | inhibition [4] [%] | inhibition [5] [%] | IC50 [5] [µM] | inhibition in vivo at 50 mg/kg [6] [%] | Papp [7] [nm/s] | ED50 [8] [mg/kg] | bioavailability [9] [%] | bioavailability [10] [%] | bioavailability [11] [%] |
| --- | --- | --- | --- | --- | --- | --- | --- | --- | --- | --- | --- | --- |
| CC(C)(C)OC(=O)NCC#CCOc1ccc(S(=O)(=O)N2CCSC(C)(C)[C@@H]2C(=O)NO)cc1 | 0.074 | 0.026 | 0.004 | 79 | 53 |  |  |  |  |  |  |  |
| CC1(C)SCCN(S(=O)(=O)c2ccc(OCC#CCO)cc2)[C@H]1C(=O)NO |  |  | 0.008 | 95 | 89 | 0.14 | ≥ 95 | 22 | 5 | 24 | 8 | 36 |
| CC1(C)SCCN(S(=O)(=O)c2ccc(OCC#CCCCN)cc2)[C@H]1C(=O)NO |  |  | 0.009 | 22 | 0 |  |  |  |  |  |  |  |
| CC#CCOc1ccc(S(=O)(=O)N2C[C@H](CNS(C)(=O)=O)SC(C)(C)[C@@H]2C(=O)NO)cc1 | 0.011 | 0.019 | 0.014 | 91 | 81 |  |  |  |  |  |  |  |
| CC#CCOc1ccc(S(=O)(=O)N2C[C@H](CC(N)=O)SC(C)(C)[C@@H]2C(=O)NO)cc1 |  |  |  | 91 | 76 |  |  |  |  |  |  |  |
| CC1(C)SCCN(S(=O)(=O)c2ccc(OCC#CCCN)cc2)[C@H]1C(=O)NO | 0.138 | 1.05 | 0.027 | 4 | 0 |  |  |  |  |  |  |  |
| CC#CCOc1ccc(S(=O)(=O)N2C[C@H](CCN(CC)CC)SC(C)(C)[C@@H]2C(=O)NO)cc1 | 0.143 | 0.033 | 0.048 | 87 | 67 |  | ≥ 95 |  |  |  |  |  |
| C#CCCCOc1ccc(S(=O)(=O)N2CCSC(C)(C)[C@@H]2C(=O)NO)cc1 | 0.04 | 0.011 | 0.008 | 38 | 16 |  |  |  |  |  |  |  |
| CC#CCOc1ccc(S(=O)(=O)N2C[C@H](CC(=O)O)SC(C)(C)[C@@H]2C(=O)NO)cc1 |  |  | 0.007 | 89 | 73 |  |  |  |  |  |  |  |
| CC1(C)SCCN(S(=O)(=O)c2ccc(OCC#CCCCO)cc2)[C@H]1C(=O)NO | 0.04 | 0.159 | 0.086 | 51 | 19 |  |  |  |  |  |  |  |
| CC(C)(C)OC(=O)NCCCCC#CCOc1ccc(S(=O)(=O)N2CCSC(C)(C)[C@@H]2C(=O)NO)cc1 |  |  | 0.004 | 70 | 40 |  |  |  |  |  |  |  |
| CC1(C)SCCN(S(=O)(=O)c2ccc(OCC#CCCO)cc2)[C@H]1C(=O)NO | 0.062 | 0.035 | 0.014 | 57 | 25 |  |  |  |  |  |  |  |
| CC1(C)SCCN(S(=O)(=O)c2ccc(OCC#CCCCCO)cc2)[C@H]1C(=O)NO |  |  |  | 77 | 52 |  |  |  |  |  |  |  |
